Measured values taken from ChEMBL document CHEMBL1155987, “2,3,4,5-Tetrahydro-1H-pyrido[2,3-b and e][1,4]diazepines as inhibitors of the bacterial enoyl ACP reductase, FabI” (Bioorg Med Chem Lett, 2009).
Converted amounts (≈) assume the structure as drawn. The source made the active and inactive calls. No cut-off for these calls is given here.

What was measured:
Staphylococcus aureus [1] = assay: microbe, parasite or virus in culture; details: 29213
Description: Antibacterial activity against Staphylococcus aureus 29213 by microdilution method

physchem [2] = details: aqueous, pH 7.4
Description: Aqueous solubility at pH 7.4

[3] = molecular target: T1, Enoyl-[acyl-carrier-protein] reductase [NADH] FabI (Escherichia coli K-12, UniProt P0AEK4)
T1 sequence (P0AEK4 whole entry): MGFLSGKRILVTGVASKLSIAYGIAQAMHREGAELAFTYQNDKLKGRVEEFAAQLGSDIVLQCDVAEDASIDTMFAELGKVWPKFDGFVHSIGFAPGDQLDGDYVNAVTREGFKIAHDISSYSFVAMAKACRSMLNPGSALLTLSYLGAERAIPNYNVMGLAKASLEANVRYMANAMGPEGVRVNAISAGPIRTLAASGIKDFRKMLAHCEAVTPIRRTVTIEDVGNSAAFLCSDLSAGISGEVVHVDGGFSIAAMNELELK
Description: Inhibition of Escherichia coli FabI

physchem [4] = details: aqueous, pH 4
Description: Aqueous solubility at pH 4.0

Staphylococcus aureus [5] = assay: microbe, parasite or virus in culture; details: 43300
Description: Antibacterial activity against methicillin-resistant Staphylococcus aureus 43300 by microdilution method

Escherichia coli = assay: microbe, parasite or virus in culture
Description: Antibacterial activity against Escherichia coli efflux pump mutant by microdilution method

Staphylococcus aureus [6] = assay: microbe, parasite or virus in culture; details: 934335
Description: Antibacterial activity against triclosan-resistant Staphylococcus aureus 934335 by microdilution method

Staphylococcus aureus [7] = assay: Antibacterial activity against Staphylococcus aureus 29213 infected neutropenic mouse thigh model assessed as change in CFU at 100 mg/kg, po after 24 hrs; assay type: functional, organism-based; set-up: dose 100 mg/kg

Structure (SMILES) | MIC (Staphylococcus aureus [1]) | solubility (physchem [2]) | IC50 [3] | solubility (physchem [4]) | MIC (Staphylococcus aureus [5]) | MIC (Escherichia coli) | MIC (Staphylococcus aureus [6]) | Activity (Staphylococcus aureus [7])
Cc1c(CN(C)C(=O)/C=C/c2cnc3c(c2)CNCCN3)oc2ccccc12 | 0.063 µg/mL (≈ 0.167 µM) | 440 µg/mL (≈ 1170 µM) | 14 nM | > 650 µg/mL | 0.063 µg/mL (≈ 0.167 µM) | ≤ 0.063 µg/mL | 4 µg/mL (≈ 10.6 µM) | 
CN1CC(=O)Nc2ncc(/C=C/C(=O)N(C)Cc3cc4ccccc4n3C)cc2C1 | 4 µg/mL (≈ 9.91 µM) | 9.7 µg/mL (≈ 24 µM) |  | 73 µg/mL (≈ 181 µM) | 0.5 µg/mL (≈ 1.24 µM) | > 32 µg/mL | 8 µg/mL (≈ 19.8 µM) | 
Cc1c(CN(C)C(=O)/C=C/c2cnc3c(c2)NCCC(=O)N3)sc2ccc(F)cc12 | ≤ 0.016 µg/mL | 38 µg/mL (≈ 89.5 µM) | 25 nM | 31 µg/mL (≈ 73 µM) | ≤ 0.016 µg/mL | 1 µg/mL (≈ 2.36 µM) | 0.125 µg/mL (≈ 0.294 µM) | 
Cc1c(CN(C)C(=O)/C=C/c2cnc3c(c2)NCCCN3)oc2ccccc12 | ≤ 0.016 µg/mL | 29 µg/mL (≈ 77 µM) | 12 nM | > 100 µg/mL | 0.031 µg/mL (≈ 0.0823 µM) | ≤ 0.063 µg/mL | 0.5 µg/mL (≈ 1.33 µM) | 
Cc1c(CN(C)C(=O)/C=C/c2cnc3c(c2)CNC(=O)CN3)oc2ccccc12 | ≤ 0.063 µg/mL |  | 39 nM |  | ≤ 0.063 µg/mL | ≤ 0.063 µg/mL | 4 µg/mL (≈ 10.2 µM) | 
Cc1c(CN(C)C(=O)/C=C/c2cnc3c(c2)CCC(=O)N3)sc2ccccc12 | 0.125 µg/mL (≈ 0.319 µM) | 0.3 µg/mL (≈ 0.766 µM) | 64 nM | 0.2 µg/mL (≈ 0.511 µM) | ≤ 0.063 µg/mL | 4 µg/mL (≈ 10.2 µM) | 4 µg/mL (≈ 10.2 µM) | 
CN(Cc1cc2ccccc2n1C)C(=O)/C=C/c1cnc2c(c1)CCC(=O)N2 | ≤ 0.016 µg/mL | 5.6 µg/mL (≈ 15 µM) | 150 nM | 6.2 µg/mL (≈ 16.6 µM) | 0.031 µg/mL (≈ 0.0828 µM) | ≤ 0.063 µg/mL | 0.5 µg/mL (≈ 1.34 µM) | 
Cc1c(CN(C)C(=O)/C=C/c2cnc3c(c2)CNCCCN3)oc2ccccc12 | 0.25 µg/mL (≈ 0.64 µM) | 210 µg/mL (≈ 538 µM) | 16 nM | 1400 µg/mL (≈ 3590 µM) | 0.5 µg/mL (≈ 1.28 µM) | 8 µg/mL (≈ 20.5 µM) | 8 µg/mL (≈ 20.5 µM) | 
Cc1c(CN(C)C(=O)/C=C/c2cnc3c(c2)NCCC(=O)N3)[nH]c2ccccc12 | 0.031 µg/mL (≈ 0.0796 µM) | 37 µg/mL (≈ 95 µM) | 840 nM | 39 µg/mL (≈ 100 µM) | 0.063 µg/mL (≈ 0.162 µM) | 4 µg/mL (≈ 10.3 µM) | 2 µg/mL (≈ 5.14 µM) | 
Cc1c(CN(C)C(=O)/C=C/c2cnc3c(c2)NCCC(=O)N3)oc2ccccc12 | ≤ 0.016 µg/mL | 1.7 µg/mL (≈ 4.35 µM) | 25 nM | 1.5 µg/mL (≈ 3.84 µM) | ≤ 0.016 µg/mL | ≤ 0.063 µg/mL | ≤ 0.016 µg/mL | 
Cc1c(CN(C)C(=O)/C=C/c2cnc3c(c2)CNCCN3)sc2ccccc12 | ≤ 0.016 µg/mL | 33 µg/mL (≈ 84.1 µM) | 9 nM | 100 µg/mL (≈ 255 µM) | 0.031 µg/mL (≈ 0.079 µM) | ≤ 0.063 µg/mL | 2 µg/mL (≈ 5.1 µM) | 
Cc1c(CN(C)C(=O)/C=C/c2cnc3c(c2)CNC(=O)CCN3)oc2ccccc12 | ≤ 0.016 µg/mL | 17 µg/mL (≈ 42 µM) | 30 nM | 46 µg/mL (≈ 114 µM) | 0.031 µg/mL (≈ 0.0766 µM) | ≤ 0.063 µg/mL | 0.5 µg/mL (≈ 1.24 µM) | 
CN(Cc1cc2ccccc2n1C)C(=O)/C=C/c1cnc2c(c1)CNCC(=O)N2 | 0.125 µg/mL (≈ 0.321 µM) | 82 µg/mL (≈ 211 µM) | 330 nM | > 100 µg/mL | 0.125 µg/mL (≈ 0.321 µM) | 1 µg/mL (≈ 2.57 µM) | 1 µg/mL (≈ 2.57 µM) | Active
CN(Cc1cc2ccccc2n1C)C(=O)/C=C/c1cnc2c(c1)NCCC(=O)N2 | 0.25 µg/mL (≈ 0.642 µM) | 33 µg/mL (≈ 84.7 µM) | 136 nM | 25 µg/mL (≈ 64.2 µM) | 0.125 µg/mL (≈ 0.321 µM) | 1 µg/mL (≈ 2.57 µM) | 1 µg/mL (≈ 2.57 µM) | 
Cc1c(CN(C)C(=O)/C=C/c2cnc3c(c2)CNCC(=O)N3)oc2ccccc12 | ≤ 0.063 µg/mL | 20 µg/mL (≈ 51.2 µM) | 29 nM | 170 µg/mL (≈ 435 µM) | ≤ 0.063 µg/mL | ≤ 0.063 µg/mL | 0.125 µg/mL (≈ 0.32 µM) | 
